This passage reports IC50 results from ChEMBL document CHEMBL1201862, “PubChem BioAssay data set” (2004).

The IC50 is the concentration at which inhibition is half-maximal.

The assay concerns the target Envelope glycoprotein gp160 (Human immunodeficiency virus 1, UniProt Q6QLK5). The assay can be described thus: cell-free HIV fusion peptide-binding blockers – biochemical, uHTS, fluorescence dequenching, […] (AID 1986).

Activity calls are given as the source filed them. No stated cut-off is given here; in the data, actives have a measured IC50 and inactives only a lower limit.

Envelope glycoprotein gp160, sequence (Q6QLK5 whole entry, the tested form may be a part): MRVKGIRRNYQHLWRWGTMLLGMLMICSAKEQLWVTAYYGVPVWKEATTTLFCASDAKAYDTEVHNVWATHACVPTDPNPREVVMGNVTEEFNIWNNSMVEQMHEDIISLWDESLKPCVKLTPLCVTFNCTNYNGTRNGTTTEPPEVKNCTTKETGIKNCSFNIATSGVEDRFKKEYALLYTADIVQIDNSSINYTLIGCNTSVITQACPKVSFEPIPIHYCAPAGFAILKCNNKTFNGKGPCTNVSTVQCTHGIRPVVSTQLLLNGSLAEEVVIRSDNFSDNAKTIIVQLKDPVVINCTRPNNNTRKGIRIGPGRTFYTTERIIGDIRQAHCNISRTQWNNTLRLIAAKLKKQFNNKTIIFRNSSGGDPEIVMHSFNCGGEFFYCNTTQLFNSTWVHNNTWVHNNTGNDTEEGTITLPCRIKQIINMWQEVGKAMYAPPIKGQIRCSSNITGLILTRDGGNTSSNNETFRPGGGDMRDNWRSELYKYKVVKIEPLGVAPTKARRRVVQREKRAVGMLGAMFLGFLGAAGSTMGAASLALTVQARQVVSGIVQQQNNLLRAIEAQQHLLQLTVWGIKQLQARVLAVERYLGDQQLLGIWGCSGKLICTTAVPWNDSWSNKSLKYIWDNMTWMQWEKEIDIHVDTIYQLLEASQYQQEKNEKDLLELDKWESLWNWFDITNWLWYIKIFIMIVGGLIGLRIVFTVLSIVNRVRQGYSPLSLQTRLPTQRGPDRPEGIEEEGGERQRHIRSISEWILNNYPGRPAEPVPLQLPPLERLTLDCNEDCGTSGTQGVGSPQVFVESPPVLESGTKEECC

`Cc1[nH]n(-c2ccccc2)c(=O)c1/C=C1/C(=O)NN(c2ccc(F)c(Cl)c2)C1=O`: the IC50 is 12.1 µM (active).
